In US20080145317A1, “EFFERVESCENT FORMULATIONS OF FLORFENICOL FOR ADDITION IN DRINKING WATER SYSTEMS” (Schering Corporation, priority 2006, published 2008):

Tests used:
[1] = stated in background, no method; cited from earlier work
[2] = Dissolution test, USP apparatus 2, paddle agitation at 50 rpm, Milli-Q water; assay type: physicochemical; conditions: 25° C., 0.1 mg/mL final
Method: The dissolution medium was Milli-Q water maintained at a temperature of 25° C. The effervescent formulations were added directly to the water in the correct amount to achieve a final concentration of 0.1 mg/mL of florfenicol. Aliquots of the resulting solution were withdrawn and analyzed using either UV-VIS spectrophotometry or HPLC, the latter to exclude excipient contribution or degradation of florfenicol. For HPLC analysis, an organic/aqueous mobile phase was used for the separation on a C18, reverse phase column. Detection was performed by UV absorption spectrometry. The percent dissolved was calculated versus an external reference standard prepared at the nominal concentration of the analyte. Pure florfenicol was analyzed as a comparator to assess the effectiveness of the effervescent formulation. Referring now to the tables below, it can be seen that pure florfenicol was only 25% dissolved in 15 minutes and 43% dissolved within 60 minutes. […] Therefore, the effervescent formulation increased the florfenicol rate of dissolution and allowed a complete dissolution within 5 minutes of the addition to water.

For `CS(=O)(=O)c1ccc([C@@H](O)[C@@H](CF)NC(=O)C(Cl)Cl)cc1` (relative stereo) [Pure Florfenicol, [R-(R*, S*)]-2,2-Dichloro-N-[1-(fluoromethyl)-2-hydroxy-2-[4-[(methylsulfonyl)phenyl]-ethyl]acetamide], the water-solubility [1] is given as 1230 µg/mL, the “% Drug in Solution” value ([2]; Time 0, pure florfenicol in Milli-Q water) is given as 0% and the “% Drug in Solution” value ([2]; Time 15 (minutes), Milli-Q water) is given as 25%. The “% Drug in Solution” value ([2]; Time 30 (minutes), Milli-Q water) was 35%, the “% Drug in Solution” value ([2]; Time 45 (minutes), Milli-Q water) was 36% and the “% Drug in Solution” value ([2]; Time 60 (minutes), Milli-Q water) was 43%.
